# From publication PMC8694143 (Microbiology Spectrum, 2021)
# Legend:
# Assay in all cases: MIC determination in broth
# Format in all cases: cell-based, Staphylococcus aureus
# MRSA ATCC 33592 = conditions: Table S5; STIP3 variants, highest conc. tested 100 μg/mL; cation-adjusted MH broth, ~10^5 CFU/mL, 2-fold dilution series, 37°C, 16 h
# Procedure: (§1) M. luteus ATCC 4698, S. aureus ATCC 29213, a panel of 7 MRSA (ATCC MP-2) strains, which includes ATCC BAA-41, BAA-42, BAA-44, BAA-1683, BAA-2094, BAA-2313, and 33592, and a series of additional bacterial isolates from human and veterinary cases were used in this study (Table S6). Bacterial strains were routinely grown in lysogeny broth (LB: 10 g/L tryptone, 5 g/L yeast extract, 10 g/L NaCl) at 30°C (M. luteus) or 37°C (Staphylococcus spp.) prior to use in specific experiments described below.
# (§2) The MICs were measured for bioactive peptides identified from the initial screen. Cation-adjusted Mueller-Hinton (MH) broth was used as the growth medium for MIC determination experiments. Bacterial cultures were diluted to an OD of 5 × 10^−4 (∼10^5 CFU/mL) in 200 μL MH broth mixed with peptides in a 2-fold dilution series arrayed in 96-well plates. Plates were incubated without shaking at 30 or 37°C depending on the organism.
# MRSA ATCC BAA-1683 = conditions: STIP3 variants, highest conc. tested 100 μg/mL; cation-adjusted MH broth, ~10^5 CFU/mL, 2-fold dilution series, 37°C, 16 h
# Procedure: as §1, §2
# MRSA ATCC BAA-2094 = conditions: STIP3 variants, highest conc. tested 100 μg/mL; cation-adjusted MH broth, ~10^5 CFU/mL, 2-fold dilution series, 37°C, 16 h
# Procedure: as §1, §2
# MRSA ATCC BAA-2313 = conditions: STIP3 variants, highest conc. tested 100 μg/mL; cation-adjusted MH broth, ~10^5 CFU/mL, 2-fold dilution series, 37°C, 16 h
# Procedure: as §1, §2
# MRSA ATCC BAA-41 = conditions: STIP3 variants, highest conc. tested 100 μg/mL; cation-adjusted MH broth, ~10^5 CFU/mL, 2-fold dilution series, 37°C, 16 h
# Procedure: as §1, §2
# MRSA ATCC BAA-42 = conditions: STIP3 variants, highest conc. tested 100 μg/mL; cation-adjusted MH broth, ~10^5 CFU/mL, 2-fold dilution series, 37°C, 16 h
# Procedure: as §1, §2
# MRSA ATCC BAA-44 = conditions: STIP3 variants, highest conc. tested 100 μg/mL; cation-adjusted MH broth, ~10^5 CFU/mL, 2-fold dilution series, 37°C, 16 h
# Procedure: as §1, §2
# S. aureus ATCC 29213 = conditions: STIP3 variants, highest conc. tested 100 μg/mL; cation-adjusted MH broth, ~10^5 CFU/mL, 2-fold dilution series, 37°C, 16 h
# Procedure: as §1, §2
Substance,"MIC, S. aureus ATCC 33592 (SCCmec III) (MRSA ATCC 33592)","MIC, S. aureus ATCC BAA 1683 (SCCmec IV) (MRSA ATCC BAA-1683)","MIC, S. aureus ATCC BAA 2094 (SCCmec V) (MRSA ATCC BAA-2094)","MIC, S. aureus ATCC BAA 2313 (SCCmec XI) (MRSA ATCC BAA-2313)","MIC, S. aureus ATCC BAA 41 (SCCmec II) (MRSA ATCC BAA-41)","MIC, S. aureus ATCC BAA 42 (SCCmec VI) (MRSA ATCC BAA-42)","MIC, S. aureus ATCC BAA 44 (SCCmec I) (MRSA ATCC BAA-44)","MIC, S. aureus ATCC 29213 (S. aureus ATCC 29213)"
"TVAGLVKWILATVKKFA [STIP3-15, rationally designed STIP3-1 variant]",12.5 µg/mL,25 µg/mL,25 µg/mL,50 µg/mL,50 µg/mL,50 µg/mL,25 µg/mL,25 µg/mL
"TVDGLVKWILATVKKFA [STIP3-17, rationally designed STIP3-1 variant]",> (The > symbol indicates that no inhibition was observed at 100 μg/mL for the STIP3 variants),> (The > symbol indicates that no inhibition was observed at 100 μg/mL for the STIP3 variants),> (The > symbol indicates that no inhibition was observed at 100 μg/mL for the STIP3 variants),> (The > symbol indicates that no inhibition was observed at 100 μg/mL for the STIP3 variants),> (The > symbol indicates that no inhibition was observed at 100 μg/mL for the STIP3 variants),> (The > symbol indicates that no inhibition was observed at 100 μg/mL for the STIP3 variants),> (The > symbol indicates that no inhibition was observed at 100 μg/mL for the STIP3 variants),> (The > symbol indicates that no inhibition was observed at 100 μg/mL for the STIP3 variants)
"TVGGLVKWILAAVKKFA [STIP3-12, rationally designed STIP3-1 variant]",25 µg/mL,25 µg/mL,50 µg/mL,25 µg/mL,25 µg/mL,25 µg/mL,25 µg/mL,25 µg/mL
"TVGGLVKWILDTFKKFA [STIP3-11, rationally designed STIP3-1 variant]",50 µg/mL,50 µg/mL,100 µg/mL,100 µg/mL,50 µg/mL,50 µg/mL,100 µg/mL,50 µg/mL
"TVGGLVKWILDTVKKFA-NH2 [STIP3-27, C-terminally amidated STIP3-1]",50 µg/mL,25 µg/mL,25 µg/mL,50 µg/mL,25 µg/mL,25 µg/mL,25 µg/mL,50 µg/mL
"TVGGLVKWILDVVKKFA [STIP3-9, rationally designed STIP3-1 variant]",25 µg/mL,25 µg/mL,25 µg/mL,25 µg/mL,35 µg/mL,25 µg/mL,25 µg/mL,25 µg/mL
"TVGGLVKWILDWVKKFA [STIP3-10, rationally designed STIP3-1 variant]",100 µg/mL,> (The > symbol indicates that no inhibition was observed at 100 μg/mL for the STIP3 variants),100 µg/mL,50 µg/mL,100 µg/mL,25 µg/mL,200 µg/mL,100 µg/mL
"TVGGLVKWILKAVKKFA [STIP3-13, rationally designed STIP3-1 variant]",25 µg/mL,25 µg/mL,25 µg/mL,25 µg/mL,12.5 µg/mL,25 µg/mL,25 µg/mL,25 µg/mL
"TVGGLVKWILKTVKKFA [STIP3-3, rationally designed STIP3-1 variant]",25 µg/mL,50 µg/mL,25 µg/mL,50 µg/mL,25 µg/mL,50 µg/mL,25 µg/mL,25 µg/mL
"TVGGLVKWILNTVKKFA [STIP3-4, rationally designed STIP3-1 variant]",50 µg/mL,100 µg/mL,50 µg/mL,100 µg/mL,50 µg/mL,50 µg/mL,50 µg/mL,100 µg/mL
"TVGVLVKWILNVVAKFA [STIP3-24, rationally designed STIP3-1 variant]",> (The > symbol indicates that no inhibition was observed at 100 μg/mL for the STIP3 variants),> (The > symbol indicates that no inhibition was observed at 100 μg/mL for the STIP3 variants),> (The > symbol indicates that no inhibition was observed at 100 μg/mL for the STIP3 variants),> (The > symbol indicates that no inhibition was observed at 100 μg/mL for the STIP3 variants),> (The > symbol indicates that no inhibition was observed at 100 μg/mL for the STIP3 variants),> (The > symbol indicates that no inhibition was observed at 100 μg/mL for the STIP3 variants),> (The > symbol indicates that no inhibition was observed at 100 μg/mL for the STIP3 variants),> (The > symbol indicates that no inhibition was observed at 100 μg/mL for the STIP3 variants)
"TVKALVKWILKTVAKFA [STIP3-19, rationally designed STIP3-1 variant]",25 µg/mL,25 µg/mL,25 µg/mL,25 µg/mL,50 µg/mL,50 µg/mL,25 µg/mL,50 µg/mL
"TVKALVKWILKTVAKFW [STIP3-21, rationally designed STIP3-1 variant]",25 µg/mL,12.5 µg/mL,12.5 µg/mL,12.5 µg/mL,25 µg/mL,25 µg/mL,25 µg/mL,25 µg/mL
"TVKALVKWILKTVAKFW-NH2 [STIP3-31, rationally designed STIP3-1 variant, C-terminal amide]",25 µg/mL,25 µg/mL,25 µg/mL,25 µg/mL,25 µg/mL,50 µg/mL,25 µg/mL,25 µg/mL
"TVKFLVKWILKWVAKFA [STIP3-25, rationally designed STIP3-1 variant]",> (The > symbol indicates that no inhibition was observed at 100 μg/mL for the STIP3 variants),> (The > symbol indicates that no inhibition was observed at 100 μg/mL for the STIP3 variants),> (The > symbol indicates that no inhibition was observed at 100 μg/mL for the STIP3 variants),> (The > symbol indicates that no inhibition was observed at 100 μg/mL for the STIP3 variants),> (The > symbol indicates that no inhibition was observed at 100 μg/mL for the STIP3 variants),> (The > symbol indicates that no inhibition was observed at 100 μg/mL for the STIP3 variants),> (The > symbol indicates that no inhibition was observed at 100 μg/mL for the STIP3 variants),> (The > symbol indicates that no inhibition was observed at 100 μg/mL for the STIP3 variants)
